From US20090054507A1, “CONTROL OF MALIGNANT CELLS BY KINASE INHIBITION” (CLEVELAND STATE UNIVERSITY, priority 2006, published 2009)
“Also recorded” adds a separate entry of the source.

Tests used:
MCF-7 cells [1] = assay: Anchorage independence in soft agar, MCF-7; assay type: cell-based, human; settings: DMAT 10 μM, one week
MEG-01 cells = assay: RPE-CD41a (αIIbβ3 integrin) flow cytometric immunophenotyping, maturation of MEG-01; assay type: cell-based, human; settings: 10 μM DMAT vs control untreated
Method: Flow cytometric analysis. Cells were analyzed using a FACSCalibur flow cytofluorometer (Becton-Dickinson), with CellQuestPro ver. 3.3 software. The data was further analyzed with FlowJo ver. 6.2, and WinMDI 2.8 software. Proper gating was performed to characterize each cell population (MEG-01 cells and platelets). The population that corresponds to platelets (small, granulated particles), is PI negative because thrombocytes are anucleated cells (only the viable cells were considered) and were distinguished by their capacity to become activated, undergoing shape change in response to agonist and to show phosphatidylserine (PS) exposure when activated. Platelets were further separated from the megakaryocytic cells, by differential centrifugation, considering the size difference between these cell populations (1-5 μm for platelets and 35-150 μm for megakaryocytic cell line MEG-01) and analyzed separately. Voltage and channels settings were adjusted accordingly. Analyzed values were obtained with WinMDI ver. 2.8.
RPE-CD41a immunophenotyping of MEG-01 cells. CD41a is the antigen for αIIbβ3 complex and it is found on platelets and platelet precursors, including MEG-01 cell line. αIIbβ3 complex is a marker of differentiation for megakaryocytes. […] Cells were counted and adjusted to 10^6 cells/ml and 20 μl of RPE-CD41a was used for 180 μl cell suspension. […]

SW-480 cells [2] = assay: Annexin V apoptosis/necrosis assay, SW-480; assay type: cell-based, human
Method: Apoptosis Assays using Flow Cytometry with Annexin V-FITC and propidium iodide (PI). For induction of typical apoptosis, cells were grown in the presence of 1 μM staurosporine (Sigma-Aldrich) for 6 hours. The staurosporine treated cells were stained as follows: control 1 with PI, control 2 with Annexin V-FITC and control 3 both PI and Annexin V-FITC in order to have the brightest controls for compensation and proper collection of the flow cytometry data. Cell necrosis was induced by heat shock (65° C. for 30 minutes). The stained control, both PI and Annexin V-FITC labeled, was then used as the reference in establishing the level of apoptosis induced by the treatments. Data was collected on logarithmic modes, two-colors. Annexin V-FITC corresponds to FL1 H channel, and PI to FL3H or FL2H channels.
Annexin V-FITC and PI apoptosis assay staining protocol. Apoptosis Annexin V-FITC and PI kit from BD Biosciences, CA, USA, was used. 10^5-10^6 cells were stained with 50 μg/ml PI and with 0.5 μg/ml FITC-labeled Annexin V using the staining protocol provided by the supplier. Samples were then analyzed immediately by flow cytometry.

[3] = In vivo toxicity study for DMAT; design: species or system mouse
Method: In vivo toxicity study for DMAT. A male nude mouse (without tumors) was treated with DMAT to determine a toxicity level. A saturated solution of DMAT in DMSO was inoculated daily in the neck subcutaneously (100 μl of 100 mg/ml DMAT in DMSO). Therefore this animal received 10 mg DMAT per day. After 2 weeks this animal was sacrificed and organs were collected for further analysis.

MEG-01 xenografts [4] = assay: Tail-bleeding assay in MEG-01 xenograft mice; assay type: in vivo; settings: DMAT treated xenograft mice vs normal mice or control mice
Method: (§1) At the end of the trial, tail-bleeding times assay was performed and blood was collected for blood counts from live and anesthetized mice. After these experiments were completed mice were sacrificed and tumors and organs were collected. Samples were fixed in formalin for further processing.
Tail-bleeding assay. Tail-bleeding times are important to investigate whether the platelets could establish hemostasis in vivo. Platelet aggregation and clot retraction in response to physiologic agonists adenosine diphosphate (ADP), epinephrine, and thrombin will affect tail-bleeding times.
Normal tail-bleeding times are an average of 1.5-2 minutes in C57BL mouse strain.
Pre-warm tubes of saline (PBS) at 37° C. and maintained at this temperature during the measurements were used. Inhalation of isoflurane vapor or, alternatively, intraperitoneal injection of avertin was used to induce general anesthesia. Using a sharp new razor or scalpel blade, tails were cut exactly 0.5 cm of the distal tip of the tail of the adult mouse and immediately inserted into the pre-warmed tube of saline. A stopclock was started at this time. The tail was hold gently, near its base, to avoid a “tourniquet effect.” Venous blood flowing into the tube can be observed and can it can be detected when this bleeding stops. The stopclock provides an accurate bleeding time.

MCF-7 cells [5] = assay: Proliferation assay in vitro, MCF-7; assay type: cell-based, human; settings: five days
Text: (§2) Viability (proliferation) assay, Trypan blue exclusion. Cells were counted using a Neubauer hemacytometer.

MEG-01 xenografts [6] = assay: Blood counts in MEG-01 xenograft mice; assay type: in vivo
Method: as §1
Mice blood collection and blood counts. Blood counts are dependent upon the method and time of blood collection. Whole blood was collected from the retro-orbital sinus (under the eye) of anesthesiated mice (both DMSO treated and DMAT treated batch). EDTA and prostaglandin E1 (PGE1) were used at collection to prevent clotting during blood collection. 500 μl mice whole blood with 100 μl anticoagulant were used for counting (a 1:5 dilution). A hematological analyzer was used for this. Samples were compared (gated) with normal mice (C57BL strain).

SW-480 cells [7] = assay: Proliferation assay in vitro, SW-480; assay type: cell-based, human; settings: four days
Text: as §2

[8] = 200 mg/kg per day DMAT (in DMSO), subcutaneous in the neck, 2 weeks

- tail bleeding times (MEG-01 xenografts [4]): in certain instances, longer
SMILES: CN(C)c1nc2c(Br)c(Br)c(Br)c(Br)c2[nH]1 [DMAT, 2-dimethylamino-4,5,6,7-tetrabromo-1H-benzimidazole]
- colonies in soft agar (MCF-7 cells [1]): much smaller and fewer colonies
- maturation level (αIIbβ3 integrin expression, RPE-CD41a) (MEG-01 cells): significant maturation levels
- level of apoptotic cells (SW-480 cells [2]; 10 μM DMAT, 24 hours, control 1.9%): 17.5%
- level of necrotic cells (SW-480 cells [2]; 10 μM DMAT, 24 hours, control 3.5%): 1.9%
- level of apoptotic cells (SW-480 cells [2]; 20 μM DMAT): 27.6%
- level of necrotic cells (SW-480 cells [2]; 20 μM DMAT): 2.4%
- histological analyses of all organs vs control animal (not injected) ([3]; 10 mg/day/animal for 2 weeks): did not show any difference
- behavior [3, 8]: generally normal behavior
- liver size [3, 8]: appeared to have increased in size
- injection site ([3]; 200 mg/kg per day DMAT (in DMSO), subcutaneous in the neck, 2 weeks, male athymic nude mouse): irritated and swollen like a cyst
- cell counts (MCF-7 cells [5]; 10 μM DMAT): cell counts between the control and the MCF-7 cells treated with 20 μM
- cell counts / proliferation (MCF-7 cells [5]; 20 μM DMAT): lowest cell counts; also recorded: proliferation arrest
- platelet counts (MEG-01 xenografts [6]; DMAT 50 μl/day of 125 mg, compared to a control): increase in platelet counts
- percentage of abnormal cells in blood counts (MEG-01 xenografts [6]; DMAT treated vs DMSO control): the control has higher percentages of abnormal cells
- cell counts (SW-480 cells [7]; 10 μM DMAT): cell counts between the control and the SW-480 cells treated with 20 μM
- cell counts / proliferation (SW-480 cells [7]; 20 μM DMAT): lowest cell counts; also recorded: proliferation arrest
